Assay results as given in patent US5914336A, “Method of controlling the serum solubility of orally administered torasemide and composition relating thereto” (Boehringer Mannheim GmbH, priority 1998, dated 1999).
Converted amounts (≈) assume the structure as drawn. “And” between values parts separate entries of the source, which are not always exact repeats. Identical values can stand only once. “Also recorded” adds a separate entry of the source. Like-named read-outs stand apart in the source and are kept apart here.

What was measured:
[1] = Dissolution testing of capsules containing 150 mg torasemide in citrate buffer (pH 4.5); assay type: physicochemical; conditions: for % dissolved: citrate buffer pH 4.5, 500 ml, 37° C., 150 rpm, 150 mg capsule; for 8 hr solubility, %: citrate, pH 4.5, 8 hr
Protocol: (§1) A blend was prepared of 75 wt. % of modification III and 25 wt. % of modification I, and a similar blend was prepared of 25 wt. % of modification III and 75 wt. % of modification I. These blends were incorporated into capsules containing 150 mg of total torasemide, and pure modification I and pure modification III 150 mg. capsules were also prepared. The capsules were subjected to dissolution testing in water, and in a citrate buffer (pH 4.5), at 37° C. under stirring.

[2] = Dissolution testing of capsules containing 150 mg torasemide in water; assay type: physicochemical; conditions: for % dissolved: 500 ml, 37° C., 150 rpm, 150 mg capsule
Protocol: as §1, with “FIG. 4 is a plot similar to that of FIG. 3, but in water rather than citrate buffer; FIG. 6 is a plot similar to that of FIG. 5, but in water. In this and the following examples, microfine torasemide of modification I and microfine torasemide of modification III were blended together. A” for “A”

[3] = Solubility at 20° C. at pH 4.90; assay type: physicochemical
Protocol: Solubility (mmol L^-1) at 20° C. at pH 4.90

[4] = Heats of fusion, transition and solution of crystal forms; assay type: physicochemical; conditions: for Heat of fusion ± 95%-c.i.: heating rate 5K min^-1; for Heat of solution: in I-butanol at 20° C.
[5] = Water content after storing in relative humidity of 92% at 25° C.; assay type: physicochemical; conditions: 92% relative humidity, Mod. III value depending on particle size
Protocol: |Water content (%) after storing in relative humidity |of 92% at 25° C. on particle size

[6] = earlier patents/knowledge, storage of pure active material or in tablets, cited from earlier work
[7] = Serum concentration of torasemide after oral administration to rats; assay type: in vivo, rat; conditions: male rats (FIG. 1)
Description: FIG. 1 is a plot of serum concentration levels in male rats of torasemide of modification I and modification III versus time after oral administration;
FIG. 2 is similar to FIG. 1, but reflects the serum concentrations in female rats;

[8] = Stability / rearrangement of crystal modification; assay type: physicochemical
[9] = Solubility of modification III versus modification I above pH 3; assay type: physicochemical; conditions: above pH 3 and especially at a pH of approximately 7.4
[10] = test system: sodium-potassium-2 chloride transport mechanism in the ascending limb of the loop of Henle; conditions: loop diuretic; cited from earlier work
[11] = in vivo; cited from earlier work

Structure (SMILES)	% dissolved ([1]; 0 minutes)	% dissolved ([1]; 15 minutes)	% dissolved ([1]; 30 minutes)	% dissolved ([1]; 45 minutes)	% dissolved ([1]; 60 minutes)	% dissolved ([1]; 120 minutes)	% dissolved ([1]; 180 minutes)	% dissolved ([1]; 240 minutes)	% dissolved ([1]; 300 minutes)	% dissolved ([1]; 480 minutes)	% dissolved ([2]; 0 minutes)	% dissolved ([2]; 15 minutes)	% dissolved ([2]; 30 minutes)	% dissolved ([2]; 45 minutes)	% dissolved ([2]; 60 minutes)	% dissolved ([2]; 120 minutes)	% dissolved ([2]; 180 minutes)	% dissolved ([2]; 240 minutes)	% dissolved ([2]; 300 minutes)	% dissolved ([2]; 480 minutes)	further results
Cc1cccc(Nc2ccncc2S(=O)(=O)NC(=O)NC(C)C)c1 [Mod. I, 1-isopropyl-3-[(4-m-toluidino-3pyridyl)-sulphonyl)-urea]	0%	13,4%	30,3%	38,3%	43,5%	54,9%	61%	63,2%	63,1%	63,9%	0%	30,6%	51,3%	58,5%	61,6%	64,9%	65,9%	66,3%	66,8%	67,3%	8 hr solubility, % ([1]; listed as Modification I): 63.9%; 8 hr solubility, % ([2]; listed as Modification I): 67.3%; Solubility [3]: 340 µM (≈ 118 µg/mL); Heat of fusion ± 95%-c.i. [4]: 8.89 ± 0.454 kcal/mol; Heat of solution [4]: 8.63 kcal/mol; Water content after storing in relative humidity of 92% at 25° C. [5]: 0.2%; stability / rearrangement of modification ([6]; listed as modification I): stable in tablets and did not rearrange again back into modification II
Cc1cccc(Nc2ccncc2S(=O)(=O)NC(=O)NC(C)C)c1 [Mod. III, 1-isopropyl-3-[(4-m-toluidino-3pyridyl)-sulphonyl)-urea]	0%	63,3%	91%	97,4%	99,5%	101%	101,5%	101,6%	101,8%	102,5%	0%	62,8%	96,6%	100,4%	101,3%	102,1%	102,5%	102,8%	102,2% and 103,2%	103,3%	8 hr solubility, % ([1]; listed as Modification III): 102.5%; 8 hr solubility, % ([2]; listed as Modification III): 103.3%; Solubility [3]: 930 µM (≈ 324 µg/mL); Heat of transition ± 95%-c.i. ([4]; at about 159° C., the difference of the heats of fusion): -1.96 ± 0.502 kcal/mol; Heat of fusion ± 95%-c.i. [4]: 7.15 ± 0.22 kcal/mol; Heat of solution [4]: 7.12 kcal/mol; Water content after storing in relative humidity of 92% at 25° C. [5]: 1.2%; serum concentration relative to modification I ([7]; 20 minutes after oral administration): more than twice the serum concentration as modification I; serum concentration relative to modification I ([7]; 40 minutes after oral administration): almost twice the serum concentration as modification I; stability of modification [8]: stable; solubility versus modification I [9]: significantly greater solubility than modification I
Cc1cccc(Nc2ccncc2S(=O)(=O)NC(=O)NC(C)C)c1 [Modification II, 1-isopropyl-3-[(4-m-toluidino-3pyridyl)-sulphonyl)-urea]	–	–	–	–	–	–	–	–	–	–	–	–	–	–	–	–	–	–	–	–	stability / rearrangement of modification [6]: relatively unstable; also recorded: in the case of storage of the pure active material, does not change; also recorded: rearranges more or less quickly into modification I
Cc1cccc(Nc2ccncc2S(=O)(=O)NC(=O)NC(C)C)c1 [Torasemide, 1-isopropyl-3-[(4-m-toluidino-3pyridyl)-sulphonyl)-urea]	–	–	–	–	–	–	–	–	–	–	–	–	–	–	–	–	–	–	–	–	mechanism of action [10]: blocks the sodium-potassium-2 chloride transport mechanism in the ascending limb of the loop of Henle; diuresis compared with other standard loop diuretics [11]: less intense initial diuresis and a sustained duration of action
